Measured values taken from US20230279482A1, “COMPOSITIONS, METHODS AND USES FOR QUANTIFYING TRANSCRIPTION AND BIOSENSING OF SMALL MOLECULES USING A NOVEL TYPE VI CRISPR-CAS ASSAY” (THE REGENTS OF THE UNIVERSITY OF COLORADO, A BODY CORPORATE, priority 2020, published 2023).

Experiments:
E. coli RNAP = E. coli RNAP (Escherichia coli, UniProt P0A8T7+P0A8V2); test: Two-batch protocol: transcription in presence of fluoride, wash, then Cas13a detection; type: biochemical; settings: fluoride riboswitch template, FIG. 6C
Protocol: In another exemplary method, two-batch methods included, 30 μL in vitro transcription reactions carried out as described above but without addition of Cas13a, crRNA, labeled RNA oligos, RNase inhibitor. Then, the reaction was washed three times with 500 μL ddH2O using an centrifugal filter (0.5 ml, 10 kDa cutoff). After concentrating the solution to approximately 20 μL, aliquots of 6 μL were taken and added to a 24 μL of a SHERLOCK reaction (described below).
The B. cereus crcB fluoride riboswitch is a regulatory switch that turns on expression of the fluoride efflux pump crcB via selectively binding fluoride over chloride. […] This may be explained in part by an observed inhibition of the assay at fluoride concentrations above 100 μM. To understand whether this effect stems from inhibition of the E. coli RNAP or inhibition of Cas13a, SHERLOCK reactions without RNAP were conducted at varying concentrations of sodium fluoride (FIG. 6A). […] To measure the response of the RNAP to fluoride, an exemplary two-batch protocol was developed (FIG. 6B) to first transcribe RNA in presence of fluoride, then wash out the fluoride and add the washed transcripts to Cas13a. […] The two-batch assay could also be used to wash out Cas13a-inhibiting compounds after transcription that would otherwise interfere with the assay.

crcB fluoride riboswitch = settings: in-line probing; cited from earlier work

Sequence of E. coli RNAP (P0A8V2 whole entry): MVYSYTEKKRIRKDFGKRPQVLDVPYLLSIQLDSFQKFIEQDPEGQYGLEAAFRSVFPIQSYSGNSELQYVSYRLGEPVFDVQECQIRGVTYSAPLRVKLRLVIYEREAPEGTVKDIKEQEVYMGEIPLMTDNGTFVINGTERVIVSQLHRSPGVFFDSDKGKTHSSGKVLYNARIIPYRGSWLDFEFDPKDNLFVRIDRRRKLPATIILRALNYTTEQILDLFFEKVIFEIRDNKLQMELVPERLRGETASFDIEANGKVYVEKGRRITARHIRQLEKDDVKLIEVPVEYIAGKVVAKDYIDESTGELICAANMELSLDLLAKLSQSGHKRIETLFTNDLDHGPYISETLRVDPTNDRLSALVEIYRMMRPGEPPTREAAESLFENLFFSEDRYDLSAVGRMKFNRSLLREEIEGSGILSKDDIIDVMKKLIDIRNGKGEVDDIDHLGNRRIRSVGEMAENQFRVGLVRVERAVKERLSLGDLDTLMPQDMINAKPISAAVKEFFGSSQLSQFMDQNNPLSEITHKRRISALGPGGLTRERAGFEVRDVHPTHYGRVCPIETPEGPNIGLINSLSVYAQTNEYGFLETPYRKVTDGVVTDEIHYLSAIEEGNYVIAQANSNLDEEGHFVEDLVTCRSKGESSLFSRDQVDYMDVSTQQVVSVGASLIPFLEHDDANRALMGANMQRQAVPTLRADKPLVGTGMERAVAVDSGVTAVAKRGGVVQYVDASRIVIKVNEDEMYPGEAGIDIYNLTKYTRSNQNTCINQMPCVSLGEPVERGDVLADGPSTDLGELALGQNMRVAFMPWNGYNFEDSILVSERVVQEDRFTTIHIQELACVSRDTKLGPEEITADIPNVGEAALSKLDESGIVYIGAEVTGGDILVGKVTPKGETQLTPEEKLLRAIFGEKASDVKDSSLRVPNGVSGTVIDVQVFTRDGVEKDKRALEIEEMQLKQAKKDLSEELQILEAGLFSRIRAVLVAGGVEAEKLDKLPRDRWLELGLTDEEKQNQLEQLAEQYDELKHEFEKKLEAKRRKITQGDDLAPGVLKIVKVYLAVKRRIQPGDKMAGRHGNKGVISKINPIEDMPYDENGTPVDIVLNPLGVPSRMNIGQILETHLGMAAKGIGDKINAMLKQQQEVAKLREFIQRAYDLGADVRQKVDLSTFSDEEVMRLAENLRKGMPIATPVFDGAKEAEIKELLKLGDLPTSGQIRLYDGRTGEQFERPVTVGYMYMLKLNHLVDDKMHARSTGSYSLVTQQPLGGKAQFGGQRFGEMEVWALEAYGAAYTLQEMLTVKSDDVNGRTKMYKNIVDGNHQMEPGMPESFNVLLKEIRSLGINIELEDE
Sequence of E. coli RNAP (P0A7Z4 whole entry, further chain): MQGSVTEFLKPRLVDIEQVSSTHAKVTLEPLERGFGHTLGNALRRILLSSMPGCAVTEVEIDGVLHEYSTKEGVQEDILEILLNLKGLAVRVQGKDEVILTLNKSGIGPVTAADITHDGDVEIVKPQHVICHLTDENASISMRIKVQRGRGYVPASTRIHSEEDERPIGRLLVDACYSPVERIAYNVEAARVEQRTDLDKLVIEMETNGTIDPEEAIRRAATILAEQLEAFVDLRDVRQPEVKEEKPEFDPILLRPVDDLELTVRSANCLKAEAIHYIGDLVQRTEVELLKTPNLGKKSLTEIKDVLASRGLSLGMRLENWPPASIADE
Sequence of E. coli RNAP (P0A800 whole entry, further chain): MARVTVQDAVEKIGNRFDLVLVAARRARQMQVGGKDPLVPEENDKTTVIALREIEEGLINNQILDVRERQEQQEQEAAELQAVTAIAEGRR
Sequence of E. coli RNAP (P0A8T7 whole entry): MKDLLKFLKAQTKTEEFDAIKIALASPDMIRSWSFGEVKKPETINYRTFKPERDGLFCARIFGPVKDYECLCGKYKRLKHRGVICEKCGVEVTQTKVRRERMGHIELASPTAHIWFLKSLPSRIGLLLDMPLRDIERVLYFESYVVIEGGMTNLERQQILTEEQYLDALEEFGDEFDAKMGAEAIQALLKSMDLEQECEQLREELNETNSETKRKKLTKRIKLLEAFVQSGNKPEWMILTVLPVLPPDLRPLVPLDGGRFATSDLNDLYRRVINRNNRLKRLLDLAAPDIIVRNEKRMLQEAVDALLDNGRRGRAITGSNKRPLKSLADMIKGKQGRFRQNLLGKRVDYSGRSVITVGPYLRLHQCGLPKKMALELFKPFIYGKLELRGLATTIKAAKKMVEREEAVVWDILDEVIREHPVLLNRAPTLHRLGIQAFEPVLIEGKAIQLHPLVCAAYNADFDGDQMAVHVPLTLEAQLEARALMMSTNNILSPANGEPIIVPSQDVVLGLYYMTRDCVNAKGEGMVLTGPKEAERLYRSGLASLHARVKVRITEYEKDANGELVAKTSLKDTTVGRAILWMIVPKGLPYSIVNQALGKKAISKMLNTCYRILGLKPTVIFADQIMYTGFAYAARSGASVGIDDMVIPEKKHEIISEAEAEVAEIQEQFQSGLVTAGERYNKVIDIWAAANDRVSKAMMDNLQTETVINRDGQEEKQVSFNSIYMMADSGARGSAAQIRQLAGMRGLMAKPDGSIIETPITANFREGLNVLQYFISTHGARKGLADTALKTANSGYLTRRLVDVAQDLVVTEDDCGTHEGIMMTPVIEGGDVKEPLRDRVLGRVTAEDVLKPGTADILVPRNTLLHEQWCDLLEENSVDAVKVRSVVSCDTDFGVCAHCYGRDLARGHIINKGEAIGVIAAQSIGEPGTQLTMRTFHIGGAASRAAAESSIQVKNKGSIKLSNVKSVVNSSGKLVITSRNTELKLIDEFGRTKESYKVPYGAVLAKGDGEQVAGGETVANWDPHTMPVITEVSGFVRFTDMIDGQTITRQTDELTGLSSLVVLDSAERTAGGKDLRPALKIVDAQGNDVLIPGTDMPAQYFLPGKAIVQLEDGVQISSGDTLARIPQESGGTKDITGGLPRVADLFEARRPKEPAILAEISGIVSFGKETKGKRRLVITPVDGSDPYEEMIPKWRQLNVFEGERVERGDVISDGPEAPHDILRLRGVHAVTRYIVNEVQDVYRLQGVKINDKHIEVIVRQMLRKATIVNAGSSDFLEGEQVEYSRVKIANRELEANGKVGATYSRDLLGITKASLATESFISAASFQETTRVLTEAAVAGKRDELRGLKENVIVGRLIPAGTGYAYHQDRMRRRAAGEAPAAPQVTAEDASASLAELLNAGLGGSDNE

concentration that drastically reduced transcriptional activity (E. coli RNAP): ≥ 125 µM
concentration up to which transcription is induced in a linear manner (E. coli RNAP): ≤ 100 µM
Compound: [F-].[Na+] [fluoride, sodium fluoride]
Kd (crcB fluoride riboswitch): ~60 µM
